Data as given in patent US7056693B2 (priority 1998, dated 2006).

Tested on: National Cancer Institute's 60 cell line
Assay type: cell-based

With “2-(2′-amino-3′-methoxyphenyl)-oxanaphthalen-4-one [PDO9859]” the “Activity profile in the 60 cell line database compared with LF” value was “activity profile that is similar to LF”.
